# Tested on: Nrf2 and downstream antioxidant enzyme in RAW264.7 cells
# Assay: Western blot of Nrf2 targeting proteins
# Type: cell-based, mouse
# Details: LPS, same concentration
# Method: Anti-Nrf2 (ab62352) and anti-IL-1β (ab45692) antibodies were purchased from Abcam Technology (England). Anti-HO-1 (SC-136960) and anti-NQO1 (SC-271116) antibodies were purchased from Santa Cruz Biotechnology (California, USA). Anti-β-Actin (60008-1-Ig) and anti-GCLM (14241-1-AP) antibodies were purchased from Proteintech Group (USA). Cell sampling and western blot were performed as previously reported (M.-C. Lu, J.-A. Ji, Y.-L. Jiang, Z.-Y. Chen, Z.-W. Yuan, Q.-D. You, Z.-Y. Jiang, An inhibitor of the Keap1-Nrf2 protein-protein interaction protects NCM460 colonic cells and alleviates experimental colitis, Sci. Rep., 6 (2016) 26585).
# To determine the effect of pro2 on Nrf2-ARE-driven gene transcription, mRNA levels of Nrf2 and three downstream genes, HO-1, NQO1 and GCLM, were examined ((A) of FIG. 4 to (D) of FIG. 4). […] The protein levels of the above genes were determined by western blot.
structure (smiles),measurement,value
COc1ccc(S(=O)(=O)Nc2ccc(N(CC(=O)N3CCSC3=O)S(=O)(=O)c3ccc(OC)cc3)c3ccccc23)cc1 [pro2],protein levels of Nrf2 and downstream antioxidant enzyme,significantly increased levels of Nrf2 and downstream antioxidant enzyme
